Legend:
[1] = tested on: d(CGTATACG)2 (DNA, duplex) CGTATACG; test: UV melting at 260 nm; settings: 100 mM KCl, 5 mM MgCl2; 20 mM sodium cacodylate pH 7.3; 3 μM DNA, DNA:compound 1:4; 1 °C/min
[2] = tested on: d(CGTATACG)2 (DNA, duplex) CGTATACG; test: X-ray crystallography, 1.58 Å

Tm increase [1] | binding ([2]; 50 mM NaCl, 10 mM MgCl2, 25 mM bis-tris pH 7.0, 15% MPD, 20 °C, 0.3 mM DNA, DNA:DA5 1:1) | binding ([2]; 200 mM KCl, 6 mM MnCl2, 50 mM MES pH 6.3, 10% PEG400, 20 °C, 0.5 mM DNA, 1 mM DA4) | SMILES
~ 8.6 °C | yes |  | c1ccc2c(NCCCCCNc3c4ccccc4nc4ccccc34)c3ccccc3nc2c1
~ 5.8 °C |  | yes | c1ccc2c(NCCCCNc3c4ccccc4nc4ccccc34)c3ccccc3nc2c1
